The source made the active and inactive calls. The rule behind the calls is not given here.
Legend:
Format in all cases: functional
[1] = species on record: Cavia porcellus; assay: Evaluated for antagonist activity on Guinea Pig Tracheal Spiral Strips relative to Kb= 0.1 uM for FPL; Partial agonist; settings: Trachea, filed as partial agonist
[2] = species on record: Cavia porcellus; assay: Evaluated for antagonist activity on Guinea Pig Tracheal Spiral Strips relative to Kb= 0.1 uM for FPL; settings: Trachea
[3] = species on record: Cavia porcellus; assay: Evaluated for antagonist activity on Guinea Pig Tracheal Spiral Strips relative to Kb= 8.1 uM Vs LTE4; settings: Trachea
[4] = species on record: Cavia porcellus; assay: Evaluated for antagonist activity on Guinea Pig Tracheal Spiral Strips relative to Kb= 0.1 uM for FPL; partial agonist; settings: Trachea
[5] = species on record: Cavia porcellus; assay: Evaluated for antagonist activity on Guinea Pig Tracheal Spiral Strips relative to Kb= 0.1 uM for FPL; Inactive (neither agonist nor antagonist activity observed); settings: Trachea

Compound | Kb [2] [µM] | further results
CCCCCCCCCCCC/C=C\[C@H](SC[C@H](N)C(=O)NCCO)[C@H](O)CCCO | – | Kb [1]: Partial agonist
CCCCCCCCCCCC/C=C\[C@@H](SC[C@H](N)C(=O)O)[C@@H](O)CCC(=O)O | 3.4 | –
CCCCCCCCCCCC/C=C\[C@@H](SC[C@H](N)C(=O)NCC(=O)O)[C@@H](O)CCC(=O)O | 10 | –
CCCCCCCCCCCC/C=C\[C@H](SC[C@H](N)C(=O)O)[C@H](O)CCC(=O)O | – | Kb [3]: 14 µM
CCCCCCCCCCCC/C=C\[C@H](SC[C@H](N)C(=O)NCC(=O)O)[C@H](O)CCCO | 14 | –
CCCCCCCCCCCC/C=C/[C@H](SC[C@H](N)C(=O)NCC(=O)O)[C@@H](O)CCC(=O)O | – | Kb [4]: 40 µM
CCCCCCCCCCCC/C=C/[C@H](SC[C@H](N)C(=O)NCC(=O)O)[C@H](O)CCC(=O)O | – | Kb [4]: 20 µM
CCCCCCCCCCCC/C=C\[C@H](SC[C@H](N)C(=O)NCC(=O)O)[C@H](O)CCC(N)=O | 7.2 | –
CCCCCCC/C=C\[C@H](SC[C@H](N)C(=O)NCC(=O)O)[C@H](O)CCC(=O)O | – | Kb [5]: inactive
CCCCCCCCCCCC/C=C\[C@H](SC[C@H](N)C(=O)NCC(N)=O)[C@H](O)CCC(=O)O | 3.5 | –
CCCCCCCCCCCC/C=C\[C@H](SC[C@H](N)C(=O)NCC(=O)O)[C@H](O)CCC(=O)O | 6.3 | –
CCCCCCCCCCCCCCCCC/C=C\[C@H](SC[C@H](N)C(=O)NCC(=O)O)[C@H](O)CCC(=O)O | – | Kb [5]: inactive

From ChEMBL document CHEMBL1122870, “Synthesis and LTD4 antagonist activity of 2-norleukotriene analogues” (1985)
